Assay results reported in US4194006A, “Therapeutic application of acetyl-d,l-carnitine and other acyl derivatives of d,l-carnitine” (priority 1977, dated 1980).
Read-outs that look alike come from different tables or passages of the source.

Key:
isolated rabbit hearts [1] = experiment: cardiokinetic effect on isolated heart (Langendorff): contractile force after anoxia, positive inotropic effect; details: 10 minutes from interruption of anoxic period
Protocol: (§1) The cardiokinetic effect on isolated heart was also investigated as follows. Rabbit hearts isolated by the Langendorff method were perfused with oxygenized ringer solution at 38.2° C. The isometric contractions, electrocardiogram and coronary flow were recorded using a "Battaglia-Rangoni" polygraph. By removing the oxygen from the perfusion fluid, metabolic damage was induced in the cardia muscle, up to an 80% reduction in the cardiac contractile force.
(§2) Under these conditions of prolonged anoxia the aerobic glycolysis of the myocardium is slowed down, accompanied by the storage of acid catabolites due to both the accumulation of pyruvic acid and its conversion to lactic acid which cannot be utilized because of the depression of pyridine enzymes, such as LDH (lactodehydrogenase). This has repercussions on the anaerobic glycolysis affecting an ever increasing number of enzymes, accompanied by a progressive and increasingly critical exhaustion of the myocardium. Thus a whole series of cardiac muscle fatigue levels occurs which can be observed by the behavior of the examined parameters, namely the contractile force, coronary flow, heart rate and cardiac rhythm. As soon as the contractile force was reduced by 80%, the perfusion fluid was once again oxygenized either without adding other compounds (controls) or with the addition of the compounds under examination.
Table 3 below gives the percentage values of the contractile force of the heart, showing a positive inotropic effect, calculated after 10 minutes from the interruption of the anoxic period (myocardial restoration).

isolated rabbit hearts [2] = experiment: coronary vasodilator effect: coronary flow, isolated heart (Langendorff)
Protocol: as §1, §2

isolated rat atrium = experiment: antiarrhythmic effect, isolated rat atrium method of M. Libonati and G. Segre; details: Rattus norvegicus; for inhibition at 0.1 µg/mL / activation at 0.1 µg/mL: 1·10^-4 g/lt; for inhibition at 0.1 µg/mL / inhibition at 0.01 µg/mL / inhibition at 0.001 µg/mL: decrease; for activation at 0.1 µg/mL / activation at 0.01 µg/mL / activation at 0.001 µg/mL: increase; for inhibition at 0.01 µg/mL / activation at 0.01 µg/mL: 1·10^-5 g/lt; for inhibition at 0.001 µg/mL / activation at 0.001 µg/mL: 1·10^-6 g/lt
female rats = experiment: antifatigue effect: rota-rod; type: in vivo, rat; details: Rattus norvegicus, ip, 0.25 h; for responders at 300 mg/kg: 300 mg/kg i.p.; for responders at 300 mg/kg / responders at 400 mg/kg / responders at 600 mg/kg: read-out: percentage of animals staying on the rota-rod more than 180 seconds; for responders at 400 mg/kg: 400 mg/kg i.p.; for responders at 600 mg/kg: 600 mg/kg i.p.; for responders at 0.25 mg/kg: read-out: percentage of animals staying on the rota-rod more than 180 seconds, 0.25 mg/kg i.p.; for responders at 0.5 mg/kg: read-out: percentage of animals staying on the rota-rod more than 180 seconds, 0.50 mg/kg i.p.; for responders at 1 mg/kg: read-out: percentage of animals staying on the rota-rod more than 180 seconds, 1.00 mg/kg i.p.
Protocol: The antifatigue effect was also examined with the following results. The antifatigue effect was investigated by administering the compounds of the formula (I) according to the present application to female rats intraperitoneally in saline solution and saline solution alone to the controls by the same route. Every 15 minutes (sessions) after treatment, the animals were placed on a 6 cm diameter rod, rotating at 16 r.p.m. The percentage of the animals capable of staying on the rota-rod for a duration of more than 180 seconds was then recorded.

[3] = read-out: Mean percent variation versus controls: excitability (-%)
[4] = read-out: Mean percent variation versus controls: frequency max (-%)
[5] = read-out: Mean percent variation versus controls: refractory period (+%)
[6] = read-out: Mean percent variation versus controls: rheobase (+%)
[7] = session 6 (every 15 minutes), * p < 0.05

Question: Which “Contractile force, Mean ± S.E.” value (isolated rabbit hearts [1]; 1·10^-5 g/lt) does the source give for `CCCC(=O)OC(CC(=O)[O-])C[N+](C)(C)C` (racemic) [butyryl-d,l-carnitine] here?
Answer: Its value is 51.5 ± 5.02%.

Question: What about the “Contractile force, Mean ± S.E.” value (isolated rabbit hearts [1]; 1·10^-6 g/lt) of the same molecule?
Answer: The value was 30.6 ± 4.51%.

Question: And the “Contractile force, Mean ± S.E.” value (isolated rabbit hearts [1]; 5·10^-6 g/lt)?
Answer: Its value is 35.6 ± 6.19%.

Question: What about the “Coronary flow, Mean ± S.E.” value (isolated rabbit hearts [2]; 1·10^-5 g/lt) of the same molecule?
Answer: The value was 90.12 ± 8.18%.

Question: And the “Coronary flow, Mean ± S.E.” value (isolated rabbit hearts [2]; 1·10^-6 g/lt)?
Answer: Its value is 74.01 ± 6.19%.

Question: And the inhibition at 0.1 µg/mL (isolated rat atrium; [3])?
Answer: The inhibition at 0.1 µg/mL was 63.7%.

Question: And the inhibition at 0.1 µg/mL (isolated rat atrium; [4])?
Answer: The inhibition at 0.1 µg/mL was 62.3%.

Question: And the activation at 0.1 µg/mL (isolated rat atrium; [5])?
Answer: Its activation at 0.1 µg/mL is 38%.

Question: And the activation at 0.1 µg/mL (isolated rat atrium; [6])?
Answer: The activation at 0.1 µg/mL was 55%.

Question: What about the inhibition at 0.01 µg/mL (isolated rat atrium; [3]) of the same molecule?
Answer: The inhibition at 0.01 µg/mL was 31.9%.

Question: And the inhibition at 0.01 µg/mL (isolated rat atrium; [4])?
Answer: Its inhibition at 0.01 µg/mL is 30.4%.

Question: And the activation at 0.01 µg/mL (isolated rat atrium; [5])?
Answer: The activation at 0.01 µg/mL was 25.9%.

Question: What about the activation at 0.01 µg/mL (isolated rat atrium; [6]) of the same molecule?
Answer: Its activation at 0.01 µg/mL is 40.8%.

Question: And the inhibition at 0.001 µg/mL (isolated rat atrium; [3])?
Answer: The inhibition at 0.001 µg/mL was 12.9%.

Question: What about the inhibition at 0.001 µg/mL (isolated rat atrium; [4]) of the same molecule?
Answer: Its inhibition at 0.001 µg/mL is 24.8%.

Question: And the activation at 0.001 µg/mL (isolated rat atrium; [5])?
Answer: Its activation at 0.001 µg/mL is 18.2%.

Question: What about the activation at 0.001 µg/mL (isolated rat atrium; [6]) of the same molecule?
Answer: The activation at 0.001 µg/mL was 28.3%.

Question: And the responders at 300 mg/kg (female rats; session 1 (every 15 minutes))?
Answer: Its responders at 300 mg/kg is 0%.

Question: And the responders at 300 mg/kg (female rats; session 2 (every 15 minutes))?
Answer: Its responders at 300 mg/kg is 0%.

Question: What about the responders at 300 mg/kg (female rats; session 3 (every 15 minutes)) of the same molecule?
Answer: Its responders at 300 mg/kg is 0%.

Question: What about the responders at 300 mg/kg (female rats; session 4 (every 15 minutes)) of the same molecule?
Answer: Its responders at 300 mg/kg is 0%.

Question: What about the responders at 300 mg/kg (female rats; session 5 (every 15 minutes)) of the same molecule?
Answer: Its responders at 300 mg/kg is 0%.

Question: And the responders at 300 mg/kg (female rats; session 6 (every 15 minutes))?
Answer: The responders at 300 mg/kg was 10%.

Question: What about the responders at 400 mg/kg (female rats; session 1 (every 15 minutes)) of the same molecule?
Answer: Its responders at 400 mg/kg is 0%.

Question: What about the responders at 400 mg/kg (female rats; session 2 (every 15 minutes)) of the same molecule?
Answer: The responders at 400 mg/kg was 0%.

Question: What about the responders at 400 mg/kg (female rats; session 3 (every 15 minutes)) of the same molecule?
Answer: Its responders at 400 mg/kg is 0%.

Question: And the responders at 400 mg/kg (female rats; session 4 (every 15 minutes))?
Answer: The responders at 400 mg/kg was 10%.

Question: And the responders at 400 mg/kg (female rats; session 5 (every 15 minutes))?
Answer: Its responders at 400 mg/kg is 10%.

Question: And the responders at 400 mg/kg (female rats; [7])?
Answer: The responders at 400 mg/kg was 20%.

Question: And the responders at 600 mg/kg (female rats; session 1 (every 15 minutes))?
Answer: Its responders at 600 mg/kg is 0%.

Question: What about the responders at 600 mg/kg (female rats; session 2 (every 15 minutes)) of the same molecule?
Answer: Its responders at 600 mg/kg is 0%.

Question: And the responders at 600 mg/kg (female rats; session 3 (every 15 minutes))?
Answer: Its responders at 600 mg/kg is 10%.

Question: What about the responders at 600 mg/kg (female rats; session 4 (every 15 minutes)) of the same molecule?
Answer: The responders at 600 mg/kg was 20%.

Question: What about the responders at 600 mg/kg (female rats; session 5 (every 15 minutes)) of the same molecule?
Answer: Its responders at 600 mg/kg is 20%.

Question: And the responders at 600 mg/kg (female rats; [7])?
Answer: The responders at 600 mg/kg was 40%.

Question: Which responders at 0.25 mg/kg (female rats; session 1 (every 15 minutes)) does the source give for `CC(N)Cc1ccccc1` (racemic) [d,l-amphetamine, reference compound] here?
Answer: Its responders at 0.25 mg/kg is 0%.

Question: What about the responders at 0.25 mg/kg (female rats; session 2 (every 15 minutes)) of the same molecule?
Answer: Its responders at 0.25 mg/kg is 12.5%.

Question: And the responders at 0.25 mg/kg (female rats; session 3 (every 15 minutes))?
Answer: The responders at 0.25 mg/kg was 25%.

Question: And the responders at 0.25 mg/kg (female rats; session 4 (every 15 minutes))?
Answer: The responders at 0.25 mg/kg was 25%.

Question: And the responders at 0.25 mg/kg (female rats; session 5 (every 15 minutes))?
Answer: The responders at 0.25 mg/kg was 25%.

Question: What about the responders at 0.25 mg/kg (female rats; session 6 (every 15 minutes)) of the same molecule?
Answer: Its responders at 0.25 mg/kg is 25%.

Question: What about the responders at 0.5 mg/kg (female rats; session 1 (every 15 minutes)) of the same molecule?
Answer: Its responders at 0.5 mg/kg is 0%.

Question: And the responders at 0.5 mg/kg (female rats; session 2 (every 15 minutes))?
Answer: Its responders at 0.5 mg/kg is 5.88%.

Question: And the responders at 0.5 mg/kg (female rats; session 3 (every 15 minutes))?
Answer: Its responders at 0.5 mg/kg is 11.8%.

Question: And the responders at 0.5 mg/kg (female rats; session 4 (every 15 minutes))?
Answer: The responders at 0.5 mg/kg was 23.5%.

Question: And the responders at 0.5 mg/kg (female rats; session 5 (every 15 minutes))?
Answer: The responders at 0.5 mg/kg was 29.4%.

Question: And the responders at 0.5 mg/kg (female rats; session 6 (every 15 minutes))?
Answer: The responders at 0.5 mg/kg was 35.3%.

Question: What about the responders at 1 mg/kg (female rats; session 1 (every 15 minutes)) of the same molecule?
Answer: Its responders at 1 mg/kg is 0%.

Question: What about the responders at 1 mg/kg (female rats; session 2 (every 15 minutes)) of the same molecule?
Answer: The responders at 1 mg/kg was 8.33%.

Question: And the responders at 1 mg/kg (female rats; session 3 (every 15 minutes))?
Answer: Its responders at 1 mg/kg is 25%.

Question: What about the responders at 1 mg/kg (female rats; session 4 (every 15 minutes)) of the same molecule?
Answer: The responders at 1 mg/kg was 33.3%.

Question: What about the responders at 1 mg/kg (female rats; session 5 (every 15 minutes), * p < 0.05) of the same molecule?
Answer: The responders at 1 mg/kg was 58.3%.

Question: And the responders at 1 mg/kg (female rats; [7])?
Answer: The responders at 1 mg/kg was 58.3%.

Question: With `C=C[C@H]1C[N@@]2CC[C@H]1C[C@@H]2[C@@H](O)c1ccnc2ccc(OC)cc12` [Quinidine, reference compound] as the molecule, how does the inhibition at 0.1 µg/mL (isolated rat atrium; [3]) read?
Answer: Its inhibition at 0.1 µg/mL is 189%.

Question: And the inhibition at 0.1 µg/mL (isolated rat atrium; [4])?
Answer: The inhibition at 0.1 µg/mL was 71.2%.

Question: What about the activation at 0.1 µg/mL (isolated rat atrium; [5]) of the same molecule?
Answer: Its activation at 0.1 µg/mL is 57.4%.

Question: What about the activation at 0.1 µg/mL (isolated rat atrium; [6]) of the same molecule?
Answer: Its activation at 0.1 µg/mL is 54.1%.

Question: And the inhibition at 0.01 µg/mL (isolated rat atrium; [3])?
Answer: Its inhibition at 0.01 µg/mL is 23.4%.

Question: And the inhibition at 0.01 µg/mL (isolated rat atrium; [4])?
Answer: The inhibition at 0.01 µg/mL was 24.1%.

Question: What about the activation at 0.01 µg/mL (isolated rat atrium; [5]) of the same molecule?
Answer: Its activation at 0.01 µg/mL is 20.4%.

Question: And the activation at 0.01 µg/mL (isolated rat atrium; [6])?
Answer: Its activation at 0.01 µg/mL is 25.1%.

Question: And the inhibition at 0.001 µg/mL (isolated rat atrium; [3])?
Answer: Its inhibition at 0.001 µg/mL is 16.9%.

Question: What about the inhibition at 0.001 µg/mL (isolated rat atrium; [4]) of the same molecule?
Answer: The inhibition at 0.001 µg/mL was 11.7%.

Question: What about the activation at 0.001 µg/mL (isolated rat atrium; [5]) of the same molecule?
Answer: The activation at 0.001 µg/mL was 3.12%.

Question: And the activation at 0.001 µg/mL (isolated rat atrium; [6])?
Answer: The activation at 0.001 µg/mL was 7.14%.
